Data set [1] addresses T1, rat CB1 receptor (Rattus norvegicus, UniProt P20272).
T1 construct: expressed in transfected cells; host or cells: CHO (CHOluc9) luciferase reporter cells
In words: Rat CB1 luciferase reporter gene test. Format: cell-based. Particulars: rat CHOCB1 reporter cell line, forskolin-stimulated luciferase activity. The protocol: 1. Rats CB1 Luciferase Reporter Gene Test
Stock cultures of a rat CHOCB1 reporter cell line were prepared by the method described in WO-A-98/37061, page 55 et seq.
The following test protocol was used for the substance screening: the stock cultures were cultivated in 50% of Dulbecco's modified Eagle medium/50% F-12 (DMEM/F12) with 10% FCS at 37° C. under 10% CO2 and split 1:10 after 2 to 3 days in each case. Test cultures were seeded at 5000cells […] in 96-well plates and cultured at 37° C. for 70 hours. The cultures were then cautiously washed with phosphate-buffered saline and reconstituted with serum-free Ultra-CHO medium (Bio-Whittaker). The substances dissolved in DMSO were diluted 1× in medium and pipetted into the test cultures (maximum DMSO final concentration in test mixture: 0.5%). 20 minutes later, forskolin was added and the cultures were then incubated in an incubator at 37° C. for 3 hours. […] Immediately thereafter luciferase substrate solution (2.5 mM ATP, 0.5 mM luciferin, 0.1 mM coenzyme A, 10 mM tricine, 1.35 mM MgSO4, 15 mM DTT, pH 7.8) and briefly shaken, and the luciferase activity was measured using a Hamamatsu camera system. […]
The IC50 values were calculated using the GraphPadPrism program (Hill equation, specifically: one-site competition).

The target in data set [2] is T2, CB1 receptor (Rattus norvegicus, UniProt P20272).
T2 construct: from tissue; host or cells: whole animal (rat), oral dosing
T2 sequence (P20272 whole entry): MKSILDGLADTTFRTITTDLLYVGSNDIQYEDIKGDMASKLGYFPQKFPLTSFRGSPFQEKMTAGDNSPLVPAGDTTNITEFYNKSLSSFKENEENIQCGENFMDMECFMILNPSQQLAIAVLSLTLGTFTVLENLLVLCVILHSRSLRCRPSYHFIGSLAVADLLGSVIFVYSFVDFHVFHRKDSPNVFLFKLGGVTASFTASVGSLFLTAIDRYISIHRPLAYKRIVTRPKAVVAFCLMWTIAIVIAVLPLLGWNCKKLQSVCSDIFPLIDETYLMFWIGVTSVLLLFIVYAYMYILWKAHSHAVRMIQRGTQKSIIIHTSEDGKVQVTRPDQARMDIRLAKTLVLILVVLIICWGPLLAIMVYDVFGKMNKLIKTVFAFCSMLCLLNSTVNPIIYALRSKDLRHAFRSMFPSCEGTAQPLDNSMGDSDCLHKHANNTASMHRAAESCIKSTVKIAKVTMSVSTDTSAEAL
In words: Rat hypothermia agonism test. Format: in vivo. Particulars: oral administration. The protocol: The in vivo agonistic effect on the CB1 receptor was examined in the rat hypothermia assay.
Five minutes after determining the basal body temperature via an esophageal temperature probe, the test substance is administered (orally). A control group receives, likewise orally, only the solvent for the test substances (Cremophors EL 1-10%+distilled water). The body temperature is measured 120 and 240 minutes after oral administration. The size of the group for each dose is 5-7 animals (rats).
Rat Hypothermia Agonism Test

Data set [3] can be described thus: Pharmacokinetics in the rat. In kind it is in vivo. The protocol: The bioavailability of the compounds according to the invention, and other pharmacokinetic parameters, can be determined in vivo in the following way:
5. Pharmacokinetics in the Rat
The substance is infused through a Braunüle in a lateral tail vein directly into the blood stream over 15 minutes. A calibrated 20 ml syringe is used for accurate administration of the chosen dose and volume. A Braun Melsungen No. 152440/1 pump is used for the infusion.
The substance is administered as bolus by gavage.
Blood samples are collected from catheterized animals jugular vein) in heparinized tubes. The blood is centrifuged and the plasma is prepared in a suitable manner for analysis (LC-MS-MS). The plasma is stored at <−15° C. until analyzed.
d) Pharmacokinetic Results of Example 2

In data set [4] the test system is rat. In words: Axotomy of sciatic branches in the rat (chronic pain model). In kind it is in vivo. Particulars: orally, acute administration, 60 minutes before the test. The protocol:
7. Axotomy of Sciatic Branches in the Rat (Chronic Pain Model)
Under pentobarbital anesthesia, the trifurcation of a sciatic nerve is exposed, and the peroneal and tibial branches are axotomized after the nerves have been ligated proximal of the axotomy site. Control animals undergo a sham operation. After the operation, the axotomized animals develop chronic mechanical allodynia and thermal hyperalgesia.
The mechanical allodynia is tested, comparing with sham-operated animals, with the aid of a pressure transducer (electronic von Frey anesthesiometer, IITC Inc.-Life Science Instruments, Woodland Hills, Calif., USA).
The thermal hyperalgesia can be determined by measuring the latency time within which a rat removes a paw from the area of a radiant heat source (plantar test, Ugo Basile (Milan)).
The substance was administered by various administration routes (i.v., i.p., orally, i.t., i.c.v., transdermally) at various times before the pain testing.
Example 2 reduces the hyperalgesia in the model at a minimally effective dose of 1 mg/kg orally (acute administration, 60 minutes before the test).

Data set [5] in a line: Microsomal stability investigation (rat liver microsomes). Particulars: predicted from microsomal data. Format: in vitro ADME. The source says: The metabolic stability of the compounds according to the invention can be found in the following in vitro assay: 4. Microsomal Stability Investigation The metabolic stability of the compounds according to the invention can be measured in rat liver microsomes (in analogy to J. Pharmacol. Exp. Ther. 1997, 283. 46-58). To determine the microsomal stability and extrapolate to the maximum possible bioavailability (Fmax) owing to the first-past effect in the liver (phase 1 reactions), the substance is incubated in low concentration with microsomal protein, with addition of cofactors, at 37° C. for 15 minutes. The incubation and the sampling take place on a modified automatic pipettor from Canberra Packard. Microsomal data (rat liver microsomes) predict a maximum possible availability of up to 100%.

Data set [6] relates to rat. In words: 6-Hydroxydopamine (6-OH-DA) lesion in the rat, staircase test. Format: in vivo. Particulars: oral dose of 1.0 mg/kg bid. The protocol: 8.6-Hydroxydopamine (6-OH-DA) Lesion in the Rat
Degeneration of dopaminergic nigrostriatal and striatopallidal neurotransmission is the main characteristic of Parkinson's disease. The clinical picture of Parkinson's disease can be simulated to a large extent in an animal model in which the neurotoxin 6-OH-DA is injected intracerebrally in rats.
Male rats (Harlan Winkelmann, Germany; weight at start of test: 200-250 g) were used for the experiments described. The experimental animals were housed under controlled conditions (humidity, temperature) with a 12-hour light/dark cycle. Those animals not involved in an experiment had free access to water and feed.
On the day of the operation, 30 minutes before the lesion, pargyline (Sigma, St. Louis, Mo., USA; 50 mg/kg i.p.) and desmethylimipramine HCl (Sigma; 25 mg/kg i.p.) were administered to the animals in order respectively to suppress 6-hydroxydopamine metabolism and prevent uptake of 6-hydroxydopamine in noradrenergic structures. […]
After the operation, the animals were placed on a warm plate and, after regaining consciousness while being monitored, returned to their cage and received feed and water ad libitum. […]
The motor deficits after the lesion were quantified using the following test as described in the respective literature: […]

The structures appear in SMILES notation.

T1 sequence (P20272 whole entry): as above

Consider `Cc1ccnc(-c2cccc(OS(=O)(=O)CCCC(F)(F)F)c2)c1` [Example 17], for which the 50% inhibitory concentration (IC50) in data set [1] stood at 16 nM.
Still for that read-out and setting: next, `CCCCCS(=O)(=O)Oc1cccc(-c2cccc(C(F)(F)F)c2)c1` [Example 3]: 2.4 nM.
As to `O=S(=O)(CCCC(F)(F)F)Oc1cccc(-c2cccc(C(F)(F)F)c2)c1` [Example 2], the “ED−1° C. (effective dose for reducing the body temperature by 1° C.)” value in data set [2] was determined as 5 mg/kg. In data set [3] (oral, dose 3 mg/kg), the AUCnorm worked out at 0.322 kg·h/L, the “Cmax,norm” value came to 0.0674 kg/L and the F worked out at 100%. In data set [3] (plasma, iv, dose 0.3 mg/kg), this compound gave a clearance of 51.7 mL/min/kg and a half-life of 2.2 h. For the same compound, in data set [3] (plasma, iv, dose 0.3 mg/kg, read-out: Vss), the Vd was 5.8 L/kg. Also, in data set [3] (plasma, oral, dose 3 mg/kg), the Tmax turned out to be 3 h and the half-life is 1.7 h. For the same compound, the “minimally effective dose reducing the hyperalgesia” value in data set [4] was determined as 1 mg/kg. Also, in data set [5], the “maximum possible availability (Fmax)” value is recorded as “up to 100%”. For the same compound, in data set [6], the “fine coordination of the forepaws in the staircase test” value is reported as “improvement in the fine coordination of the forepaws”.
